The subject of assay [1] is METH-sensitized rats. The experiment in a line: Reversal of METH-induced behavioral sensitization by 5-HT2A/2C antagonists (motor activity after acute METH challenge). In kind it is in vivo, rat. The text has this:
Automation of observational evaluations was accomplished using computerized small animal monitors (AccuScan Instr. Inc., Columbus, Ohio). […] One feature of drug-induced behavioral sensitization is heterogeneity of motor responses and the AccuScan monitors quantify numerous behavioral indices. This is a critical point for the motor profile is exquisitely related to METH dose, the drug history of the rat and observation time. After 3- or 31-days of withdrawal from repeated METH injections, rats were allowed to achieve baseline motor activity with a 30 min habituation period, challenged with 1 mg/kg sc METH and monitored for 90 min.
Multiple 5-HT2A/2C antagonists with differing pharmacological profiles were tested for their ability to ameliorate METH-induced behavioral sensitization when administered after sensitization has developed. […] The doses were selected based on the antagonists' ability to block 5-HT2A- and 5-HT2C-mediated activity and their pharmacokinetic profiles.

The test system of assay [2] is METH-conditioned rats. The experiment in a line: METH-induced conditioned place preference (CPP) with simultaneous motor sensitization. Type of assay: in vivo, rat. The text has this:
The CPP box (Accuscan, Columbus, Ohio) consists of three Plexiglas compartments, each with distinct visual and tactile cues (on one side, patterned floor with object attached and horizontally striped wall; on the opposite side, smooth floor with no object and vertically striped walls; center—uniformly white floor and walls). The center compartment can be separated from the left and right compartments by removable guillotine doors. Motor activity in three dimensional space, and time spent, in each compartment is detected by two sets of photobeams set at different heights from the floor. Drug conditioning is performed by administering METH to the rat while it is in one compartment, and on the alternating day, saline is administered while the rat is confined to the opposite compartment. Confinement was achieved by blocking access to other compartments using the guillotine door. The center compartment is not seen by the rat during conditioning, and all conditioning sessions last for 45 min.
The inventors have determined that the number of METH-pairings, and the dose of METH, dictate the strength of the drug-environment association (i.e., the magnitude of salience attribution). The test for CPP is determined in a METH-free state (i.e., at least 48 hr after that last METH pairing), at which time the rats are placed in the center compartment and allowed free access to all compartments for 30 min, and the time spent in each compartment is the index of preference. The inventors have determined that the number of METH-pairings, and the dose of METH, dictate the strength of the drug-environment association (i.e., the magnitude of salience attribution) and thus the amount of time spent in the compartment previously paired with METH (FIG. 7), as well as persistence of this effect (i.e., how long it lasts; FIG. 8A). METH-induced motor sensitization can be assessed in several ways, including assessing the capacity of the rat to express an enhanced motor response to an acute METH challenge (FIGS. 9 & 10A).
To efficiently apply this approach to testing of 5-HT2A/2C antagonists, we determined that single pairing protocols of the CPP paradigm can be used to predict efficacy outcomes of 5-HT2A/2C antagonists in long-term tests on these drugs evaluating their capacity to nullify the persistent enhanced salience induced by METH. […] Thus, these protocols should help predict the capacity of novel therapeutic targets to halt a common problem of drug relapse, i.e., the ability of re-exposure to drugs like METH to immediately reinstate their abuse.

Assay [3] deals with ventral pallidal neurons. The experiment in a line: Electrophysiology of ventral pallidal neurons, i.v. METH dose-response in chloral hydrate-anesthetized rats. In kind it is in vivo, rat. Here is the method: Based on the biochemical results and because the ventral pallidum contains one of the highest concentrations of 5-HT in the brain, electrophysiological evaluations of this region in rats behaviorally sensitized to METH were conducted (with a 5-day once daily treatment of 2.5 mg/kg). The acute challenge was intravenously administered METH (via a tail vein cannula) as previously used by T. C. Napier's lab ^e.g., [34] where the drug is given in a cumulative dosing fashion such that each dose, administered in 2 min-intervals, essentially doubles the previous dose. METH was tested using a range of 0.06-4.0 mg/kg in saline vehicle. […] Moreover, this approach establishes if systemic administration of METH, in doses that include those producing behavioral sensitization, are sufficient promote sensitized cellular responding and thus allows for direct comparisons of cellular responding to behavioral outcomes. After a 3-day withdrawal, the ability of intravenously administered METH or 1-(2,5-dimethoxy-4-iodophenyl)-2-aminopropane (DOI) to increase ventral pallidal cell firing was enhanced in chloral hydrate-anesthetized rats, as shown by a leftward shift in the dose-response curve with a […] and an increase in response efficacy for both agonists (FIG. 16) and this occurred without any changes in the portion of neurons showing a rate increase or decrease to the acute METH challenge.
Electrophysiological assessment of the ventral pallidum was also conducted 30 days after repeated METH. […] For each experiment, an i.v. METH dose-response curve (METH was tested using a range of 0.06-2.0 mg/kg in saline vehicle) was generated for one ventral pallidal neuron per rat at 30 days withdrawal from repeated METH. Based on the analysis of curves where there was an excitatory effect of i.v. METH on ventral pallidal neurons (171 animals), there was a diminished excitatory effect of i.v. METH in the ventral pallidum of rats that were pretreated with METH only. This is illustrated by both the curves and corresponding Emax data in FIG. 17. This decrease only at long-term withdrawal mirrors the reduction seen in pallidal pCREB only after 14, but not at 3 day withdrawal from repeated METH (see Example III).

The target of assay [4] is α2. The following applies: read-out: receptor affinity (Ki) α2; cited from earlier work.

We go through one compound from patent US20060035889A1, “Treatment for methamphetamine addiction and reduction of methamphetamine use using serotonin antagonists” (priority 2004, published 2006).

The term Ki denotes a measure of affinity in units of concentration, obtained from inhibition or displacement.

Structures are written as SMILES.

`CN1CCN2c3ncccc3Cc3ccccc3[C@@H]2C1` (racemic) [mirtazapine, 1,2,3,4,10,14b-hexahydro-2-methyl-pyrazino[2,1-a]pyrido[2,3-c]benzazepine]: the “vertical movement suppression seen in METH-pretreated rats” value in assay [1] (mirtazapine 5 mg/kg x 15 days) is “attenuation of the vertical movement suppression”. Also, the “decreases in total distance traveled and time spent ambulating induced by METH pretreatments” value in assay [1] (mirtazapine 5 mg/kg x 15 days, data not shown) was “attenuated the decreases”. In assay [1] (mirtazapine 5 mg/kg x 15 days, first 60 min after acute METH challenge), the horizontal activity result is recorded as “slight attenuation”. Besides, the “potentiation of METH-induced sensitization for any assessed behavior” value in assay [1] (mirtazapine daily 5 mg/kg x 15 days) is recorded as “did not potentiate”. In addition, the “overall attenuation of METH-sensitized responses” value in assay [1] (mirtazapine daily 5 mg/kg x 15 days, M-F) is “greatest overall attenuation”. Also, the “mirtazapine+saline group vs saline+saline pretreated rats” value in assay [1] (mirtazapine daily 5 mg/kg x 15 days, saline-pretreated) is on record as “did not differ”. In addition, in assay [2] (3 pairings 1 mg/kg ip METH, ten once-daily 5 mg/kg ip mirtazapine during withdrawal, day 20 (FIG. 8B)), the “preference to the place previously paired with METH (CPP expression)” value was “completely reverse”. Further, in assay [2] (mirtazapine during METH withdrawal, METH challenge day 22 (FIG. 10B)), the “associated motor sensitization (number of rears)” value is given as “completely reverse”. Further, the “ability of subsequent METH pairings to induce CPP (reinstatement)” value in assay [2] (repeated mirtazapine during withdrawal, day 25 (FIG. 12)) is reported as “renders ineffective”. In addition, the “CPP expression after single pairing of 1.0 mg/kg METH” value in assay [2] (single home cage injection 0.5, 1.0 or 5.0 mg/kg mirtazapine 24 h before test (FIG. 11)) was “reversal of METH-induced CPP”. The “Emax of Firing Rate Increases of Acute Meth” value in assay [3] (METH days 1-5, then antagonist, tested 31 days after last METH) is reported as 251% ± 21% (n = 5); in assay [3] (Sal days 1-5, then antagonist, tested 31 days after last injection) it was 240% ± 44% (n = 5). Besides, the “effect of repeated METH on response of ventral pallidal neurons to acute METH challenge” value in assay [3] (after 30 days withdrawal) is recorded as “reversal”. For the same compound, in assay [4], the Ki was 65 nM.
